Patent US12448369B2 (Edgewise Therapeutics, Inc., priority 2023, dated 2025)

Assays:
[1] = tested on: Rabbit Psoas myofibrils (skeletal myosin ATPase); experiment: Myofibril ATPase assay, rabbit psoas (skeletal) myofibrils; format: biochemical; conditions: rabbit psoas myofibrils
Method in brief: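 Values derive from concentration–response fits of NADH consumption rates at 340 nm, normalized to vehicle-only wells, as Y75 or Y125. Myofibril ATP turnover was linked to NADH via PK/LDH in Ca/EGTA-buffered PIPES, pH 7.0, and read over 75 min.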

[2] = tested on: Porcine atria myofibrils (atrial myosin ATPase); experiment: Myofibril ATPase assay, porcine atria myofibrils; format: biochemical; conditions: porcine atria myofibrils
Method in brief: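 Atrial myofibril ATPase measured by NADH-coupled absorbance at 340 nm; vehicle-normalized slopes fitted to give Y75 or Y125 values.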

[3] = molecular target: T1, Porcine ventricle myofibrils (ventricular myosin ATPase) (Sus scrofa, UniProt P79293); experiment: Myofibril ATPase assay, porcine ventricle myofibrils; format: biochemical, porcine (Yucatan minipigs); conditions: porcine ventricle myofibrils
T1 construct: Myofibrils from porcine cardiac muscle was isolated from the left ventricle of Yucatan minipigs; tissue Exemplar Genetics; host or cells: left ventricle of Yucatan minipigs, myofibrils prepared in house
T1 sequence (P79293 whole entry): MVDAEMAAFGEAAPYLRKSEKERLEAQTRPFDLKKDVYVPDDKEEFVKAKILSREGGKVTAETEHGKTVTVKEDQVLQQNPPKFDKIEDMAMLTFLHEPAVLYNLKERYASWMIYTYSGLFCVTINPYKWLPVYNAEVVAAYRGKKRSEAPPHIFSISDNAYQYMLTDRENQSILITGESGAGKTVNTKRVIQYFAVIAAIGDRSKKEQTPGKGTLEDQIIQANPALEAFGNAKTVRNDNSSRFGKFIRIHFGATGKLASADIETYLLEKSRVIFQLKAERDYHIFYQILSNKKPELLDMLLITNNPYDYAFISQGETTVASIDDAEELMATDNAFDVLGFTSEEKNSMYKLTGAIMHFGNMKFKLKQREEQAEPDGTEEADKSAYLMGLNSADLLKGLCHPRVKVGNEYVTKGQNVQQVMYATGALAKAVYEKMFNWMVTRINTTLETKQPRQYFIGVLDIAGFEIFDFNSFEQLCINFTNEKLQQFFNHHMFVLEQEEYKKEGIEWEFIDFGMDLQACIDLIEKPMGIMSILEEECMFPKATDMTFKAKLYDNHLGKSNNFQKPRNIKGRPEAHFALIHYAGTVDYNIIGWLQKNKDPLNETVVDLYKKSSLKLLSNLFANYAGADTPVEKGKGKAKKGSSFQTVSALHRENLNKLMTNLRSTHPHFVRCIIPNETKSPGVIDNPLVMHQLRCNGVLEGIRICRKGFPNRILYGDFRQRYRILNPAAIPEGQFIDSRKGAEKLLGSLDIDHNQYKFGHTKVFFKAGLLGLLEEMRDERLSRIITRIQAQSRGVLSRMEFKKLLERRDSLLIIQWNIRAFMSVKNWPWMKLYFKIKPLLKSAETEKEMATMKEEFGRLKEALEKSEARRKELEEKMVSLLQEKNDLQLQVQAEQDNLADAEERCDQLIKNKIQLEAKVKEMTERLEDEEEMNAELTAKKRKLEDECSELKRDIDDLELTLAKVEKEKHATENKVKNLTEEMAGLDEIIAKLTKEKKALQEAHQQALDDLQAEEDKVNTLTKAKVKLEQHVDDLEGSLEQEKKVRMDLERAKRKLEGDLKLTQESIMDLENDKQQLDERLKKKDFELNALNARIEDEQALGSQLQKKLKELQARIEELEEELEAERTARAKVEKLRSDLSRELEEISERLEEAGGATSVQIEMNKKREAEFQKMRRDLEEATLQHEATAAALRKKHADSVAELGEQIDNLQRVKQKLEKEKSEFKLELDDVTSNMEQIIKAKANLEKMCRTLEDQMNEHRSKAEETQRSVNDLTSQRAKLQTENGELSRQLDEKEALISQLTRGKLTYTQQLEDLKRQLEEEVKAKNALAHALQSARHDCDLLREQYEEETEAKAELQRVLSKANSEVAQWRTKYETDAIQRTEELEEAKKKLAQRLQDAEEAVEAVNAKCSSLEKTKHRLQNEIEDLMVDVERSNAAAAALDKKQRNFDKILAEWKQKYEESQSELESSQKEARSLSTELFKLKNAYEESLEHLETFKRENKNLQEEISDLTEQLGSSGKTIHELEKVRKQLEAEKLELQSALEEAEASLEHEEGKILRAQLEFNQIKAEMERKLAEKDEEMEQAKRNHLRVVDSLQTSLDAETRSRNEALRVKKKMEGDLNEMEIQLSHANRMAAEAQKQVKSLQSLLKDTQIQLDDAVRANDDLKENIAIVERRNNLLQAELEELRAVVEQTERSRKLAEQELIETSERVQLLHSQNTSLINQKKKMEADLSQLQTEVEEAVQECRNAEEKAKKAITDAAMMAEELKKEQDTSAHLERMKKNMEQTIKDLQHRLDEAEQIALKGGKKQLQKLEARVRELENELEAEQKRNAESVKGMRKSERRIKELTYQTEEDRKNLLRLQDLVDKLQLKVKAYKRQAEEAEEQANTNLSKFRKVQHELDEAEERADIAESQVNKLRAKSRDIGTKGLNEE
Method in brief: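 ATPase activity of porcine left-ventricle myofibrils (Yucatan minipig) was followed through PK-LDH coupling as NADH loss at 340 nm, read every 1.5-2 min for 75 min. Slopes were normalised to vehicle wells and fitted to a 4-parameter logistic model. Values are Y75, the concentration giving a 25% drop in activity, or Y125 for activators.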

[4] = Y75 value (75% activity relative to no compound)

Structure (SMILES) | Skeletal EC25 ([1]; Y75 value (no ‡ mark)) [µM] | Atrial EC25 ([2]; Y75 value (no ‡ mark)) [nM] | Ventricular EC25 ([3]; Y75 value (no ‡ mark)) [nM] | Skeletal EC25 ([1]; Y75 value) [µM] | Atrial EC25 [2, 4] [nM] | Ventricular EC25 ([3]; Y75 value) [nM] | Skeletal EC25 ([1]; ‡ Y125 value, not a Y75 value (125% activity relative to no compound))
Cc1c(CC(=O)N[C@H](C)c2ncc(C#N)cc2F)c(=O)[nH]c2cccc(F)c12 [compound 51] | 0.06 | 230 | 400 |  |  |  | 
Cc1ccccc1[C@@H](C)NC(=O)Cc1c(C)c2c(C)nccc2[nH]c1=O (single isomer, unassigned) [compound 326] |  |  |  | 100.00 | 100000 | 100000 | 
Cc1nc(C#N)ncc1[C@@H](C)NC(=O)Cc1c(C)c2cc(F)ccc2[nH]c1=O [compound 1052] | 0.78 | 650 | 7050 |  |  |  | 
Cc1c(CC(=O)N[C@H](CO)c2ncc(C#N)cc2F)c(=O)[nH]c2cnnc(C#N)c12 [compound 163] |  |  |  | 12.34 | 940 | 100000 | 
Cc1nccc2[nH]c(=O)c(CC(=O)N[C@H](C)c3ccc(O)nc3)c(C)c12 (single isomer, unassigned) [compound 295] |  |  |  | 100.00 | 100000 | 100000 | 
Cc1c([C@H](C)C(=O)N[C@H](C)c2ncc(C#N)cc2F)c(=O)[nH]c2ccc(F)c(F)c12 (single isomer, unassigned) [compound 2601] | 0.04 | 40 | 70 |  |  |  | 
Cc1nccc2[nH]c(=O)c([C@@H](C)C(=O)N[C@@H](C)c3ccc(C#N)cc3F)c(C)c12 (single isomer, unassigned) [compound 195] |  |  |  | 0.11 | 300 | 2970 | 
C[C@H](NC(=O)[C@H](C)c1c(C(F)(F)F)c2cc(F)ccc2[nH]c1=O)c1ccc(F)cc1F (single isomer, unassigned) [compound 58] | 0.15 | 60 | 1320 |  |  |  | 
COC[C@H](NC(=O)Cc1c(C)c2c(C#N)nccc2[nH]c1=O)c1ncc(F)cc1F [compound 160] |  |  |  | 0.03 | 130 | 2230 | 
Cc1c(CC(=O)N[C@@H](C)c2ccc(C#N)cn2)c(=O)[nH]c2ccnc(C(F)(F)F)c12 [compound 156] |  |  |  | 0.21 | 330 | 3120 | 
Cc1c([C@@H](C)C(=O)N[C@@H](C)c2ccc(C#N)cc2F)c(=O)[nH]c2ccnc(C#N)c12 (single isomer, unassigned) [compound 173] |  |  |  | 0.02 | 220 | 300 | 
Cc1c(CC(=O)N[C@H](C)c2ccc(C#N)cn2)c(=O)[nH]c2cccc(F)c12 [compound 53] | 0.31 | 1930 | 6530 |  |  |  | 
Cc1c(CC(=O)N[C@H](C)c2ncc(C#N)cn2)c(=O)[nH]c2ccc(F)c(Cl)c12 (single isomer, unassigned) [compound 2055] | 0.11 | 60 | 260 |  |  |  | 
C[C@@H](NC(=O)C(F)(F)c1cc2c(F)c(F)ccc2[nH]c1=O)c1cccc(C#N)n1 (single isomer, unassigned) [compound 2571] | 100.00 | 40540 | 8060 |  |  |  | 
N#Cc1ccc([C@H](CO)NC(=O)Cc2c(C3CC3)c3cc(F)ccc3[nH]c2=O)c(F)c1 [compound 76] | 100.00 | 100000 | 100000 |  |  |  | 
C[C@H](NC(=O)Cc1cc2cc(F)c(F)cc2[nH]c1=O)c1ncc(C#N)cc1F (single isomer, unassigned) [compound 4] | 0.15 | 4380 | 960 |  |  |  | 

Structure (SMILES) | Skeletal EC25 ([1]; Y75 value (no ‡ mark)) [µM] | Atrial EC25 ([2]; Y75 value (no ‡ mark)) [nM] | Ventricular EC25 ([3]; Y75 value (no ‡ mark)) [nM] | Skeletal EC25 ([1]; Y75 value) [µM] | Atrial EC25 [2, 4] [nM] | Ventricular EC25 ([3]; Y75 value) [nM] | Skeletal EC25 ([1]; ‡ Y125 value, not a Y75 value (125% activity relative to no compound))
Cc1c(CC(=O)N[C@@H](C)c2ccc(C#N)cn2)c(=O)[nH]c2cc(F)ccc12 [compound 1073] | 100.00 | 53690 | 89230 |  |  |  | 
CC(C(=O)N[C@@H](C)c1ccc(F)cc1F)c1cc2c(C(F)(F)F)nccc2[nH]c1=O (single isomer, unassigned) [compound 3518] |  |  |  | 9.37 | 2050 | 100000 | 
Cc1c(CC(=O)N[C@H](C)c2ncc(F)cc2F)c(=O)[nH]c2ccnc(C(F)(F)F)c12 (single isomer, unassigned) [compound 265] |  |  |  | 3.86 | 100000 | 100000 | 
C[C@H](C(=O)N[C@H](C)c1ncc(C#N)cc1F)c1cc2c(F)c(F)ccc2[nH]c1=O (single isomer, unassigned) [compound 2599] |  | 2160 | 16660 |  |  |  | 100.00‡ μM
Cc1c(CC(=O)N[C@@H](C)c2ccc(F)cc2F)c(=O)[nH]c2ccnnc12 [compound 418] |  |  |  | 2.19 | 2660 | 48430 | 
C[C@@H](NC(=O)Cc1c(C(F)(F)F)c2c(C3CC3)nccc2[nH]c1=O)c1ncc(C#N)cn1 (single isomer, unassigned) [compound 3001] |  |  |  | 4.13 | 1250 | 17650 | 
COC[C@H](NC(=O)Cc1c(C)c2c(C)nccc2[nH]c1=O)c1ccc(C#N)cc1F [compound 169] |  |  |  | 0.15 | 1060 | 10520 | 
Cc1c(CC(=O)N[C@H](C)c2ccc(C#N)cn2)c(=O)[nH]c2cc(F)ccc12 [compound 1072] | 100.00 | 17570 | 36860 |  |  |  | 
Cc1c(CC(=O)N[C@H](C)c2ncc(C#N)cc2F)c(=O)[nH]c2ccc(Cl)cc12 (single isomer, unassigned) [compound 2049] | 1.00 | 150 | 230 |  |  |  | 
C[C@H](NC(=O)[C@H](C)c1cc2c(F)c(F)ccc2[nH]c1=O)c1ccc(F)cc1F (single isomer, unassigned) [compound 111] | 0.11 | 100 | 100000 |  |  |  | 
Cc1c(CC(=O)N[C@@H](C)c2ccc(F)cc2F)c(=O)[nH]c2ccnc(OCC(F)F)c12 [compound 380] |  |  |  | 0.01 | 60 | 770 | 
Cc1c(CC(=O)N[C@H]2COCc3cc(C#N)cnc32)c(=O)[nH]c2ccc(F)cc12 [compound 1057] | 21 | 100000 | 100000 |  |  |  | 
Cc1c(C(F)(F)C(=O)N[C@@H]2CCc3cc(C#N)cnc32)c(=O)[nH]c2ccc(F)cc12 (single isomer, unassigned) [compound 2515] | 100.00 | 5060 | 100000 |  |  |  | 
Cc1c(CC(=O)N[C@@H](CO)c2ccc(C#N)cc2F)c(=O)[nH]c2ccc(F)c(C3CC3)c12 [compound 72] | 0.02 | 80 | 340 |  |  |  | 
C[C@H](NC(=O)C(F)(F)c1cc2c(C#N)c(F)ccc2[nH]c1=O)c1ncc(C#N)cc1F (single isomer, unassigned) [Compound 2530] | 0.08 | 200 | 210 |  |  |  | 
Cc1c([C@@H](C)C(=O)N[C@@H](C)c2ccc(F)cc2F)c(=O)[nH]c2ccnc(OC(F)(F)F)c12 (single isomer, unassigned) [compound 347] |  |  |  | 0.35 | 940 | 20360 | 
